ChEMBL document CHEMBL5291721, “A preclinical secondary pharmacology resource illuminates target-adverse drug reaction associations of marketed drugs” (Nat Commun, 2023)

biological target: T1, Androgen receptor (Rattus norvegicus, UniProt P15207); type: functional
T1 sequence (P15207 whole entry): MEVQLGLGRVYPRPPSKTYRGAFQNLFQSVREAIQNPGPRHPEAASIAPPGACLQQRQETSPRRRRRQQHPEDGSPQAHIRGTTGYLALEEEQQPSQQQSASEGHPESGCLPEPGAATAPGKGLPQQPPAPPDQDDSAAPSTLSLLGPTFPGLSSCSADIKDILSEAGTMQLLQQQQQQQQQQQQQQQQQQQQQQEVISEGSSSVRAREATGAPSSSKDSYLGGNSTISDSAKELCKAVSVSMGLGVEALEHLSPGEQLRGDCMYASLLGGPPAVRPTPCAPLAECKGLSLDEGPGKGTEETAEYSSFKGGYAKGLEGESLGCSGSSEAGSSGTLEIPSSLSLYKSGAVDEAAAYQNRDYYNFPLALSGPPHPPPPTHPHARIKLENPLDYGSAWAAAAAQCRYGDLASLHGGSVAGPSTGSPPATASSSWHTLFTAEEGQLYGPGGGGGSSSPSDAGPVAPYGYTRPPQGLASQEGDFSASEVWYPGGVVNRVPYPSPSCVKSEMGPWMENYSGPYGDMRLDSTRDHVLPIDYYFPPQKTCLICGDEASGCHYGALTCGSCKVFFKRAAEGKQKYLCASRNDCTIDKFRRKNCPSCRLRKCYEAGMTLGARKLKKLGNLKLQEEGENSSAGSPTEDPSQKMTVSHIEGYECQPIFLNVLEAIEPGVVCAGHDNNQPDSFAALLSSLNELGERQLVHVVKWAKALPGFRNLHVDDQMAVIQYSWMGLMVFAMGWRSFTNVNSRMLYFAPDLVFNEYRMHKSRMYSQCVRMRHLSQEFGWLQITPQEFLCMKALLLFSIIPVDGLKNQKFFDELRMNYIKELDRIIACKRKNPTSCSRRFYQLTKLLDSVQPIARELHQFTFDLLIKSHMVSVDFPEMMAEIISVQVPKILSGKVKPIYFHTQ
Further: assay procedure not described here.

| AC50 | SMILES |
| --- | --- |
| > 30 µM | CN(C)CCOCC(=O)NC12CC3CC(CC(C3)C1)C2 [TROMANTADINE] |
| > 30 µM | CCCO[C@H]1[C@@H]([C@@H](COCc2ccc(Cl)cc2)OCc2ccc(Cl)cc2)OC(OCC)[C@@H]1O (some centres not stated) [CLOBENOSIDE] |
| > 30 µM | CCC(=O)O[C@H](CC(=O)O)C[N+](C)(C)C [LEVOCARNITINE PROPIONATE] |
| > 30 µM | CCCCOC(=O)C(=O)Nc1cccc(-c2nnn[nH]2)c1 [TAZANOLAST] |
| > 10 µM | CC(=O)Oc1cccc2c1C(=O)c1c(OC(C)=O)cc(C(=O)O)cc1C2=O [DIACEREIN] |
| > 30 µM | CCCCC[C@H](O)CC[C@@H]1[C@H]2Cc3cccc(OCC(=O)O)c3C[C@H]2C[C@H]1O [TREPROSTINIL] |
| > 30 µM | COc1ccc(-n2nc(C(N)=O)c3c2C(=O)N(c2ccc(N4CCCCC4=O)cc2)CC3)cc1 [APIXABAN] |
